The results in this text go back to ChEMBL document CHEMBL1125371, “Inhibition of human leukocyte elastase (HLE) by N-substituted peptidyl trifluoromethyl ketones” (J Med Chem, 1992).

Square brackets hold non-standard residues; d marks the D form. Peptide text beside a SMILES is read from it. * marks the point of attachment. ξ: configuration not given here. Cbz = O=C(OCc1ccccc1)*; Boc = CC(C)(C)OC(=O)*; ξV = CC(C)C(N)C(=O)O; CF3 = FC(F)(F)*; Sar = CNCC(=O)O

The test system of assay [1] is Cricetinae gen. sp. The assay is described as follows: Compound was evaluated for inhibition of Elastase-induced Pulmonary hemorrhage (EPH) in hamsters at the dose of 10 micro/mL). The class given is functional.
The target of assay [2] is T1, Neutrophil elastase (Homo sapiens, UniProt P08246).
T1 sequence (P08246 whole entry): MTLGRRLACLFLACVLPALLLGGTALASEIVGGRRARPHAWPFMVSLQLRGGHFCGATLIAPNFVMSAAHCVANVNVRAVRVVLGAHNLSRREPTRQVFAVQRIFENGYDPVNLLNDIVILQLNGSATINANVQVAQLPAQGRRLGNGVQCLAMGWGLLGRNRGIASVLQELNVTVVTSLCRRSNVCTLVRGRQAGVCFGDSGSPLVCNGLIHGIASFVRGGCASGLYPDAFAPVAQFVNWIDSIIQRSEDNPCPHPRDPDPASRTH
The assay is described as follows: In vitro inhibitory activity against human leukocyte elastase.

Assay [3] concerns Cricetinae gen. sp. The assay is described as follows: Compound was evaluated for inhibition of Elastase-induced Pulmonary hemorrhage (EPH) in hamsters at the dose of 20 micro/mL). It counts as functional. The arrangement: unit not given here.
Assay [4] has as its system Cricetinae gen. sp. As to the kind of experiment: Compound was evaluated for inhibition of Elastase-induced Pulmonary hemorrhage (EPH) in hamsters at the dose of 100 micro/mL). It counts as functional.
Assay [5] has as its system Cricetinae gen. sp. As to the kind of experiment: Compound was evaluated for inhibition of Elastase-induced Pulmonary hemorrhage (EPH) in hamsters at the dose of 30 micro/mL). It counts as functional.
The subject of assay [6] is Cricetinae gen. sp. As to the kind of experiment: Compound was evaluated for inhibition of Elastase-induced Pulmonary hemorrhage (EPH) in hamsters at the dose of 3 micro/mL). It counts as functional.
Assay [7] deals with Cricetinae gen. sp. The assay is described as follows: Compound was evaluated for inhibition of Elastase-induced Pulmonary hemorrhage (EPH) in hamsters at the dose of 1 micro/mL). It counts as functional.

With `CC(C)C(NC(=O)CN(C(=O)[C@@H](NC(=O)c1ccc(C(=O)NS(=O)(=O)c2ccc(Cl)cc2)cc1)C(C)C)C1CCCCCCC1)C(=O)C(F)(F)F` (stereo partly drawn), the “Inhibition of elastase-induced pulmonary hemorrhage” value (“Inhibition” below) in assay [1] is 96.7. Further, the IC50 (in general, the concentration that inhibits the measured activity by half) in assay [2] amounted to 67 nM.

`CC(NC(=O)CN(C(=O)[C@@H](NC(=O)c1ccc(C(=O)NS(=O)(=O)c2ccc(Cl)cc2)cc1)C(C)C)C1Cc2ccccc2C1)C(=O)C(F)(F)F` (stereo partly drawn) had a half-inhibitory concentration (IC50) in assay [2] of 817 nM.

Turning to `CC(C)[C@H](NC(=O)CN(C(=O)[C@@H](NC(=O)c1ccc(C(=O)NS(=O)(=O)c2ccc(Cl)cc2)cc1)C(C)C)C1Cc2ccccc2C1)C(=O)c1ccc(C(F)(F)F)cc1`, the “Inhibition” value in assay [1] is recorded as 7.7. Moreover, the half-inhibitory concentration (IC50) in assay [2] stood at 5100 nM.

`CC(C)C(NC(=O)CN(C(=O)[C@@H](NC(=O)c1ccc(C(=O)NS(=O)(=O)c2ccc(Cl)cc2)cc1)C(C)C)C1CCCC1)C(=O)C(F)(F)F` (stereo partly drawn) gave a Max hemorrhage in assay [3] of 99.2. The 50% inhibitory concentration (IC50) in assay [2] amounted to 92 nM.

Compound `CCOC(=O)CCC(=O)Nc1nc(/C(=N\OC)C(=O)N[C@H](C(=O)N(CC(=O)NC(C(=O)C(F)(F)F)C(C)C)C2Cc3ccccc3C2)C(C)C)cs1` (stereo partly drawn) registered an IC50 in assay [2] of 452 nM.

Take `CC(C)C(NC(=O)C1CCCN1C(=O)[C@@H](NC(=O)OC(C)(C)C)C(C)C)C(=O)C(F)(F)F` (stereo partly drawn): the IC50 in assay [2] came to 65 nM.

The compound `CC(C)C(NC(=O)CN(C(=O)[C@@H](NC(=O)c1ccc(C(=O)NS(=O)(=O)c2ccc(Cl)cc2)cc1)C(C)C)C1CCCCCC1)C(=O)C(F)(F)F` (stereo partly drawn) yielded a Max hemorrhage in assay [3] of 84.3. Further, inhibition in assay [2] was half-maximal at 175 nM (IC50).

In the case of `CC(C)C(NC(=O)C1Cc2ccccc2CN1C(=O)[C@@H](NC(=O)OCc1ccccc1)C(C)C)C(=O)C(F)(F)F` (stereo in doubt; 20z), the IC50 in assay [2] amounted to 73 nM.

On to `CC(C)C(NC(=O)CN(C(=O)OCc1ccccc1)C1Cc2ccccc2C1)C(=O)C(F)(F)F` (stereo not drawn), for which the IC50 in assay [2] is above 5000 nM.

For the compound `CC(C)C(NC(=O)CNC(=O)[C@@H](NC(=O)c1ccc(C(=O)NS(=O)(=O)c2ccc(Cl)cc2)cc1)C(C)C)C(=O)C(F)(F)F` (stereo partly drawn), in assay [3], the Max hemorrhage was 85.1. Further, the IC50 in assay [2] was 73 nM.

On to `CC(C)C(NC(=O)OCc1ccccc1)C(=O)C(F)(F)F` (stereo not drawn), for which the IC50 in assay [2] is above 5000 nM.

`CC(=O)OCC1=C(C(=O)OC(C)(C)C)N2C(=O)[C@@H](C(C)=O)C2S(=O)(=O)C1` (stereo partly drawn): the Max hemorrhage in assay [4] stood at 0.

Take `CC(C)[C@H](NC(=O)CN(C(=O)[C@@H](NC(=O)OCc1ccccc1)C(C)C)C1Cc2ccccc2C1)C(=O)c1ccc(C(F)(F)F)cc1`: in assay [2], the IC50 is above 5000 nM.

`CC(C)[C@H](NC(=O)OCc1ccccc1)C(=O)N(CC(=O)NCC(=O)C(F)(F)F)C1Cc2ccccc2C1` registered an IC50 in assay [2] above 5000 nM.

As to `CC(C)C(NCCN(C(=O)[C@@H](NC(=O)c1ccc(C(=O)NS(=O)(=O)c2ccc(Cl)cc2)cc1)C(C)C)C1Cc2ccccc2C1)C(=O)C(F)(F)F` (stereo partly drawn), the “Inhibition” value in assay [1] stood at 2.7. The compound further came in with an IC50 in assay [2] of 5000 nM.

In turn, `CC(C)C(NC(=O)CNC(=O)[C@@H](NC(=O)OC(C)(C)C)C(C)C)C(=O)C(F)(F)F` (stereo partly drawn) (Boc-Val-Gly-[ξV]-CF3) came in with an IC50 in assay [2] of 153 nM.

In assay [2], `CCOC(=O)N1CCC(N(CC(=O)NC(C(=O)C(F)(F)F)C(C)C)C(=O)[C@@H](NC(=O)OCc2ccccc2)C(C)C)CC1` (stereo partly drawn) came in with an IC50 of 507 nM.

In turn, `CC(C)C(NC(=O)CN(C(=O)[C@@H](NC(=O)c1ccc(C(=O)NS(=O)(=O)c2ccc(Cl)cc2)cc1)C(C)C)C1CC2CCC1C2)C(=O)C(F)(F)F` (stereo partly drawn) registered a Max hemorrhage in assay [3] of 93.8.

Consider `CC(C)C(NC(=O)CN(Cc1ccco1)C(=O)[C@@H](NC(=O)c1ccc(C(=O)NS(=O)(=O)c2ccc(Cl)cc2)cc1)C(C)C)C(=O)C(F)(F)F` (stereo partly drawn), for which the “Inhibition” value in assay [1] is 96.2. Further, the midpoint of inhibition in assay [2], the IC50, lay at 138 nM.

`CC(C)C(NC(=O)CN(C(=O)[C@@H](NC(=O)c1ccc(C(=O)NS(=O)(=O)c2ccc(Br)cc2)cc1)C(C)C)C1Cc2ccccc2C1)C(=O)C(F)(F)F` (stereo partly drawn) returned an IC50 in assay [2] of 149 nM.

`CC(C)C(NC(=O)CN(Cc1ccccc1)C(=O)[C@@H](NC(=O)c1ccc(C(=O)NS(=O)(=O)c2ccc(Cl)cc2)cc1)C(C)C)C(=O)C(F)(F)F` (stereo partly drawn) returned an IC50 in assay [2] of 217 nM.

Turning to `CC(C)C(NC(=O)CN(CC1CCCO1)C(=O)[C@@H](NC(=O)c1ccc(C(=O)NS(=O)(=O)c2ccc(Cl)cc2)cc1)C(C)C)C(=O)C(F)(F)F` (stereo partly drawn), half-maximal inhibition in assay [2] (IC50) required 30 nM.

Compound `CC(C)[C@H](NC(=O)c1ccc(C(=O)NS(=O)(=O)c2ccc(Cl)cc2)cc1)C(=O)N(CC(=O)NC(C)(C)C(=O)C(F)(F)F)C1Cc2ccccc2C1` displayed a half-inhibitory concentration (IC50) in assay [2] above 5000 nM.

`CC(C)C(NC(=O)C1Cc2ccccc2CN1C(=O)[C@@H](NC(=O)c1ccc(C(=O)NS(=O)(=O)c2ccc(Cl)cc2)cc1)C(C)C)C(=O)C(F)(F)F` (stereo partly drawn) came in with a Max hemorrhage in assay [3] of 88.4.

In assay [3], `CCOC(=O)N1CCC(N(CC(=O)NC(C(=O)C(F)(F)F)C(C)C)C(=O)[C@@H](NC(=O)c2ccc(C(=O)NS(=O)(=O)c3ccc(Cl)cc3)cc2)C(C)C)CC1` (stereo partly drawn) gave a Max hemorrhage of 98.4. The compound further came in with a half-maximal inhibitory concentration (IC50) in assay [2] of 57 nM.

As for `CC(C)C(NC(=O)CN(C(=O)[C@@H](NC(=O)c1ccc(C(=O)NS(=O)(=O)c2ccc(Cl)cc2)cc1)C(C)C)C1Cc2ccccc2C1)C(=O)C(F)(F)F` (stereo partly drawn), the Max hemorrhage in assay [5] was 99.3; in assay [6], 58.1. Besides, the “Inhibition” value in assay [1] was determined as 90.5.

`CC(C)C(NC(=O)[C@H]1CCCN1C(=O)[C@@H](NC(=O)OC(C)(C)C)C(C)C)C(=O)C(F)(F)F` (stereo partly drawn) returned an IC50 in assay [2] of 172 nM.

With `CC(C)C(NC(=O)CN(C(=O)[C@@H](NC(=O)OCc1ccccc1)C(C)C)C1Cc2ccccc2C1)C(=O)C(F)(F)F` (stereo partly drawn), the Max hemorrhage in assay [3] is listed as 24.2.

As for `CC(C)C(NC(=O)c1ccc(C(=O)NS(=O)(=O)c2ccc(Br)cc2)cc1)C(=O)N1CCC[C@H]1C(=O)N[C@H](C(=O)C(F)(F)F)C(C)C` (stereo partly drawn), the Max hemorrhage came out at 33.3 in assay [7] and 79.4 in assay [6]. Moreover, the “Inhibition” value in assay [1] was found to be 98.5.

Turning to `CC(C)[C@H](NC(=O)c1ccc(C(=O)NS(=O)(=O)c2ccc(Cl)cc2)cc1)C(=O)N(CC(=O)NC(Cc1ccccc1)C(=O)C(F)(F)F)C1Cc2ccccc2C1` (stereo partly drawn), in assay [3], the Max hemorrhage is 43.8. The same compound returned an IC50 in assay [2] above 5000 nM.

In assay [2], `CC(C)C(NC(=O)CN(C)C(=O)[C@@H](NC(=O)c1ccc(C(=O)NS(=O)(=O)c2ccc(Cl)cc2)cc1)C(C)C)C(=O)C(F)(F)F` (stereo partly drawn) had an IC50 of 52 nM.

For the compound `CC(C)C(NC(=O)CN(C)C(=O)[C@@H](NC(=O)OCc1ccccc1)C(C)C)C(=O)C(F)(F)F` (stereo partly drawn) (Cbz-Val-[Sar]-[ξV]-CF3), in assay [2], it took 153 nM to reach half-maximal inhibition (IC50).

Take `CC(C)C(NC(=O)C1Cc2ccccc2CN1C(=O)[C@@H](NC(=O)OCc1ccccc1)C(C)C)C(=O)C(F)(F)F` (stereo in doubt; 20y): the midpoint of inhibition in assay [2], the IC50, lay at 233 nM.

`COc1ccc(CCN(CC(=O)NC(C(=O)C(F)(F)F)C(C)C)C(=O)[C@@H](NC(=O)c2ccc(C(=O)NS(=O)(=O)c3ccc(Cl)cc3)cc2)C(C)C)cc1OC` (stereo partly drawn) returned an IC50 in assay [2] of 84 nM.

In assay [2], `CC(C)C(NCCN(C(=O)[C@@H](NC(=O)OC(C)(C)C)C(C)C)C1Cc2ccccc2C1)C(=O)C(F)(F)F` (stereo partly drawn) displayed an IC50 above 5000 nM.
